Experimental data: paper PMC9718554, “Discovery of a fragment hit compound targeting D-Ala:D-Ala ligase of bacterial peptidoglycan biosynthesis” (Journal of Enzyme Inhibition and Medicinal Chemistry, 2022)
Read-outs that look alike come from different tables or passages of the source.

Biological target: T1, E. coli DdlB enzyme (D-alanine:D-alanine ligase) (Escherichia coli, UniProt P07862)
T1 construct: made in house; host or cells: E. coli
Test: biochemical
Conditions: read-out: DdlB RA; for remaining activity at 2400 µM: tested concentration 2.4 mM; for remaining activity at 2900 µM: tested concentration 2.9 mM; for remaining activity at 1900 µM: tested concentration 1.9 mM; for remaining activity at 3100 µM: tested concentration 3.1 mM; for remaining activity at 2200 µM: tested concentration 2.2 mM; for remaining activity at 2000 µM: tested concentration 2.0 mM; for remaining activity at 2100 µM: tested concentration 2.1 mM; for remaining activity at 2500 µM: tested concentration 2.5 mM; for remaining activity at 2300 µM: tested concentration 2.3 mM; for remaining activity at 3500 µM: tested concentration 3.5 mM; for remaining activity at 3000 µM: tested concentration 3.0 mM; for remaining activity at 2600 µM: tested concentration 2.6 mM; for remaining activity at 2700 µM: tested concentration 2.7 mM; for remaining activity at 2800 µM: tested concentration 2.8 mM; for remaining activity at 1700 µM: tested concentration 1.7 mM
Experimental: The fragment library was assayed in a DdlB inhibition assay, where fragments were tested for their ability to inhibit the D-Ala-adding activity of DdlB ligase. The orthophosphate formed during the enzymatic reaction was measured spectrophotometrically using malachite green reagent.
A recombinant E. coli DdlB enzyme (D-alanine:D-alanine ligase) was expressed in E. coli[11]. […] The final DMSO concentration was 5%. […] All experiments were performed in duplicates. […] IC50 values were determined by measuring the residual activities in quadruplicate at seven different compound concentrations and calculated using in GraphPad Prism (GraphPad Software, San Diego, CA, USA).

[1] = residual activity of DdlB, fragment library screening
[2] = residual activity, tested concentration 1.8 mM

Q: With COC(C(=O)NC1CC1)c1ccccc1 (stereo not shown) [Compound 8010-8989] as the compound, how does the remaining activity at 2400 µM read?
A: 94%

Q: Which remaining activity at 2900 µM does the source give for Cc1cc2nc(O)c(CCO)c(C)n2n1 [Compound 8011-1975] here?
A: 95%

Q: How did the remaining activity at 1800 µM (tested concentration 1.8 mM) turn out when CSCCC(C(=O)O)N1C(=O)NC2NC(=O)NC21 (stereo not shown) [Compound 8011-2492] was run?
A: 95%

Q: How did the remaining activity at 1900 µM turn out when O=C(O)C1CSC(c2c(F)cc(F)cc2F)N1 (stereo not shown) [Compound 8011-4426] was run?
A: 90%

Q: Which remaining activity at 2400 µM does the source give for NC(=O)N[C@@H](Cc1ccccc1)C(=O)O [Compound 8011-7026] here?
A: 93%

Q: Which remaining activity at 1900 µM does the source give for CC1SC(c2ccc(Cl)c(Cl)c2)NC1=O (stereo not shown) [Compound 8011-7610] here?
A: 80%

Q: Oc1cc(-c2ccncc2)n[nH]1 [Compound 8011-7794] was tested. Which remaining activity at 3100 µM did it give?
A: 77%

Q: Which remaining activity at 2200 µM (residual activity) does the source give for COC(=O)c1sc(C(=O)OC)c(O)c1O [Compound 8011-7913] here?
A: 86%

Q: Which remaining activity at 2200 µM (residual activity) does the source give for O=C(Nc1ccccc1)c1nc[nH]c1C(=O)O [Compound 8011-9089] here?
A: 104%

Q: NC(=O)NCC(=O)N[C@H](Cc1c[nH]cn1)C(=O)O [Compound 8012-0410] was tested. Which remaining activity at 2000 µM (fragment library screening) did it give?
A: 91%

Q: CC(C)C(=O)Nc1ccc(Cl)cc1C(=O)O [Compound 8012-2055] was tested. Which remaining activity at 2100 µM (residual activity) did it give?
A: 110%

Q: For CC1(C)CC(=O)CC(C)(C)N1OC(=O)c1ccccn1 [Compound 8012-5220], which remaining activity at 2200 µM (residual activity) is on record?
A: 97%

Q: Which remaining activity at 2400 µM [1] does the source give for Cc1cc(C)n(CCO)c(=O)n1 [Compound 8012-5852] here?
A: 94%

Q: With O=C(O)CCNc1nc(F)cc(F)n1 [Compound 8012-6989] as the compound, how does the remaining activity at 2500 µM read?
A: 93%

Q: CC(C)(C)c1cc(C(=O)O)nn1-c1ccccc1 [Compound 8012-7831] was tested. Which remaining activity at 2000 µM (residual activity) did it give?
A: 102%

Q: With Nn1cnn(Cc2ccc([N+](=O)[O-])cc2)c1=O [Compound 8012-9514] as the compound, how does the remaining activity at 2100 µM read?
A: 106%

Q: With O=S(=O)(c1ncn[nH]1)N1CCOCC1 [Compound 8013-0403] as the compound, how does the remaining activity at 2300 µM (residual activity) read?
A: 95%

Q: Which remaining activity at 1900 µM (residual activity) does the source give for CCN(Cc1ccccc1)S(=O)(=O)c1ncn[nH]1 [Compound 8013-0404] here?
A: 89%

Q: Which remaining activity at 3600 µM (residual activity of DdlB, fragment library screening, tested concentration 3.6 mM) does the source give for C#CC1(O)C(C)CN(C)CC1C (stereo not shown) [Compound 8013-1764] here?
A: 97%

Q: COc1ccc(C(O)(C(=O)O)C(F)(F)F)cc1OC (stereo not shown) [Compound 8013-2786] was tested. Which remaining activity at 1800 µM [2] did it give?
A: 94%

Q: O=C1CC2CS(=O)(=O)CC2N1C1CCCCC1 (stereo not shown) [Compound 8013-3540] was tested. Which remaining activity at 2100 µM did it give?
A: 82%

Q: For CC1(C)CC(n2nc(O)cc2N)CCO1 (stereo not shown) [Compound 8013-3639], which remaining activity at 2400 µM is on record?
A: 101%

Q: CC1(C)Cc2noc(N)c2C(C)(C)N1O [Compound 8013-4059] was tested. Which remaining activity at 2200 µM did it give?
A: 96%

Q: Which remaining activity at 1800 µM (tested concentration 1.8 mM) does the source give for O=c1[nH]c2cc(S(=O)(=O)N3CCCCC3)ccc2o1 [Compound 8013-5568] here?
A: 103%

Q: Which remaining activity at 3500 µM does the source give for O=C(O)Cn1nnc(O)n1 [Compound 8013-5932] here?
A: 86%

Q: COc1ccc(-n2c(C)ccc2C)nc1 [Compound 8014-1211] was tested. Which remaining activity at 2500 µM did it give?
A: 22%

Q: How did the remaining activity at 2100 µM [1] turn out when CC(C)(C)C(N)Cn1cccn1 (stereo not shown) [Compound 8014-1588] was run?
A: 99%

Q: Which remaining activity at 2300 µM does the source give for O=C1C(O)CC2c3ccccc3CC3(CCCC3)N12 (stereo not shown) [Compound 8014-1716] here?
A: 85%

Q: How did the remaining activity at 3000 µM [1] turn out when CC(C)n1ncc(C(N)=O)c1N [Compound 8014-2120] was run?
A: 92%

Q: With CC(=O)N1CCC(O)C2CCCCC21 (stereo not shown) [Compound 8014-2178] as the compound, how does the remaining activity at 2500 µM read?
A: 99%

Q: How did the remaining activity at 1800 µM turn out when COC(=O)C(O)(c1cc(C)c(N)c(C)c1)C(F)(F)F (stereo not shown) [Compound 8015-4257] was run?
A: 94%

Q: Which remaining activity at 2200 µM does the source give for Cc1nn(-c2ccccn2)c2c1C(=O)C(C#N)CC2 (stereo not shown) [Compound 8015-7286] here?
A: 83%

Q: How did the remaining activity at 1900 µM (fragment library screening) turn out when O=C(O)CC1(CC(=O)Nc2cccnc2)CCCC1 [Compound 8016-0695] was run?
A: 93%

Q: Which remaining activity at 3000 µM does the source give for Cc1cc(O)n(-c2nnn[nH]2)n1 [Compound 8016-1033] here?
A: 80%

Q: Which remaining activity at 2600 µM does the source give for O=C(O)c1nc2ccccc2nc1O [Compound 8016-8257] here?
A: 97%

Q: For N#Cc1ccccc1S(N)(=O)=O [Compound 8016-9723], which remaining activity at 2700 µM is on record?
A: 88%

Q: COc1cc(C(=O)NO)cc(OC)c1OC [Compound 8017-0604] was tested. Which remaining activity at 2200 µM (residual activity) did it give?
A: 96%

Q: Which remaining activity at 2600 µM does the source give for O=C(O)c1n[nH]cc1Br [Compound 8017-3539] here?
A: 87%

Q: COC(=O)c1nnn(-c2ccccc2)c1O [Compound 8017-3559] was tested. Which remaining activity at 2300 µM did it give?
A: 104%

Q: With C=CCN1C(=O)NOC(N)=C1C#N [Compound 8017-4055] as the compound, how does the remaining activity at 2800 µM read?
A: 92%

Q: How did the remaining activity at 1700 µM turn out when NS(=O)(=O)c1ccc(NC(=O)CCn2cnnn2)cc1 [Compound 8017-4431] was run?
A: 99%

Q: With O=C(O)c1cccc2c1C(=O)N(Cc1ccncc1)C2 [Compound 8017-6147] as the compound, how does the remaining activity at 1900 µM (fragment library screening) read?
A: 90%

Q: Which remaining activity at 2400 µM does the source give for CC1=NN(C(C#N)c2cn(C)nc2C)C(C)(C)C1 (stereo not shown) [Compound 8017-8222] here?
A: 105%

Q: COc1cc(OC)c2cc(C(=O)O)[nH]c2c1 [Compound 8017-9359] was tested. Which remaining activity at 2300 µM (residual activity) did it give?
A: 104%

Q: With Oc1cc(-c2cccnc2)n[nH]1 [Compound 8018-0078] as the compound, how does the remaining activity at 3100 µM read?
A: 91%

Q: N#CCc1nnc(-c2cccc(Cl)c2)[nH]1 [Compound 8018-3009] was tested. Which remaining activity at 2300 µM (residual activity) did it give?
A: 93%

Q: CC(C)(C)OC(=O)n1c(B(O)O)cc2ccccc21 [Compound 8018-6383] was tested. Which remaining activity at 1900 µM did it give?
A: 75%

Q: How did the remaining activity at 2600 µM turn out when Oc1nonc1NCc1ccccc1 [Compound 8018-6481] was run?
A: 102%

Q: With OB(O)c1ccn[nH]1 [Compound 8018-7072] as the compound, how does the remaining activity at 4500 µM (tested concentration 4.5 mM) read?
A: 87%

Q: Which remaining activity at 2900 µM does the source give for Oc1nonc1N1CCOCC1 [Compound 8018-8552] here?
A: 92%

Q: Oc1nonc1N1CCCC1 [Compound 8018-8553] was tested. Which remaining activity at 3200 µM (tested concentration 3.2 mM) did it give?
A: 116%

Q: For O=C(O)c1cnn(-c2ccccn2)c1 [Compound 8018-8592], which remaining activity at 2700 µM is on record?
A: 94%

Q: For Cc1noc(-c2cccnc2Cl)n1 [Compound 8018-8637], which remaining activity at 2800 µM is on record?
A: 96%

Q: O=S(=O)(O)c1nnc(-c2ccccc2)o1 [Compound 8018-8658] was tested. Which remaining activity at 2200 µM did it give?
A: 98%

Q: How did the remaining activity at 3500 µM turn out when O=C(O)c1cc(CO)on1 [Compound 8018-8667] was run?
A: 99%

Q: How did the remaining activity at 2500 µM turn out when NS(=O)(=O)c1ccc2c(c1)CCN2 [Compound 8018-8673] was run?
A: 80%

Q: With Cc1[nH]c(N)c(C#N)c1C [Compound 8018-8696] as the compound, how does the remaining activity at 4400 µM (residual activity of DdlB, fragment library screening, tested concentration 4.4 mM) read?
A: 98%

Q: With Nc1ccc2c(c1)[C@@H](O)C[C@@H](C(F)(F)F)O2 [Compound 8018-8746] as the compound, how does the remaining activity at 2600 µM read?
A: 98%

Q: With N#CCc1nnn[nH]1 [Compound 8018-8768] as the compound, how does the remaining activity at 5500 µM (residual activity of DdlB, fragment library screening, tested concentration 5.5 mM) read?
A: 97%

Q: For CCc1c(C)nn(-c2nnn[nH]2)c1O [Compound 8019-0165], which remaining activity at 2600 µM is on record?
A: 76%

Q: With CC1(C)CC(O)(c2cc(C(=O)O)no2)CCO1 (stereo not shown) [Compound 8019-4352] as the compound, how does the remaining activity at 2500 µM read?
A: 72%

Q: With Cc1nc2ccc(Br)cn2c1C(=O)O [Compound 8019-4469] as the compound, how does the remaining activity at 2000 µM (residual activity) read?
A: 94%

Q: With N#Cc1oc2ccccc2c1N [Compound 8019-4478] as the compound, how does the remaining activity at 3500 µM [1] read?
A: 85%

Q: How did the remaining activity at 2300 µM (residual activity) turn out when CC(c1c[nH]c2ccccc12)C(O)C(=O)O (stereo not shown) [Compound 8019-4518] was run?
A: 100%

Q: How did the remaining activity at 4300 µM (tested concentration 4.3 mM) turn out when COc1nonc1O [Compound 8019-4549] was run?
A: 93%

Q: For N#CC1(N2CCOCC2)CCCC1 [Compound 8019-5695], which remaining activity at 2800 µM [1] is on record?
A: 105%

Q: How did the remaining activity at 2000 µM (residual activity) turn out when COc1ccccc1Nc1ncccc1C(=O)O [Compound 8019-5848] was run?
A: 99%

Q: How did the remaining activity at 2600 µM turn out when Cc1nc2c(C)cccn2c1C(=O)O [Compound 8019-6472] was run?
A: 93%

Q: O=S(=O)(O)c1nc2ccccc2n1Cc1ccccc1 [Compound 8019-7098] was tested. Which remaining activity at 1700 µM did it give?
A: 102%

Q: O=C(O)c1cc(S(=O)(=O)N2CCCC2)ccc1O [Compound 8019-7119] was tested. Which remaining activity at 1800 µM [2] did it give?
A: 97%
